Measured values from article PMC9699003, “Arene Variation of Highly Cytotoxic Tridentate Naphthoquinone-Based Ruthenium(II) Complexes and In-Depth In Vitro Studies” (Pharmaceutics, 2022).

Columns and labels:
[1] = test system: A549 non-small cell lung cancer cells; test: MTT assay (cytotoxicity); format: cell-based, human
Experimental: (§1) CH1/PA-1 ovarian teratocarcinoma cells (provided by L. R. Kelland, CRC Centre for Cancer Therapeutics, Institute of Cancer Research, Sutton, UK; confirmed by STR profiling as PA-1 ovarian teratocarcinoma cells at Multiplexion, Heidelberg, Germany), SW480 colon carcinoma and A549 non-small cell lung cancer cells (both obtained from the American Type Culture Collection, Manassas, VA, USA) were grown as adherent cultures in 75 cm² culture flasks (CytoOne, Starlab, Hamburg, Germany) by using minimal essential medium (MEM) supplemented with 1 mM sodium pyruvate, 4 mM L-glutamine, 1% (v/v) nonessential amino acids from 100-fold stock (all purchased from Sigma-Aldrich) and 10% heat-inactivated fetal bovine serum (BioWest, Nuaillé, France). Cells were maintained under standard culture conditions with 5% CO2 at 37 °C in a humidified atmosphere.
(§2) The 3-(4,5-dimethylthiazol-2-yl)-2,5-diphenyl-2H-tetrazolium bromide (MTT, Acros Organics, Geel, Belgium) assay was used to detect the cytotoxicity of the compounds after 24 h and 96 h incubation. In brief, cells were harvested from culture flasks and the following cell numbers (each in 100 µL) were seeded into 96-well culture plates (CytoOne, tissue culture treated, Starlab, Hamburg, Germany) for 24 h incubation: 1 × 10^4 (CH1/PA-1), 1 × 10^4 (SW480) and 1.5 × 10^4 (A549) cells per well; and for 96 h incubation: 1 × 10^3 (CH1/PA-1), 2 × 10^3 (SW480) and 3 × 10^3 (A549) cells per well. After 24 h, cells resuming their exponential growth rate were treated with test compounds at nine concentrations obtained by serial two-fold dilution. Stock solutions were prepared in DMSO (20 mM or 40 mM) and diluted in supplemented MEM. An amount of 100 µL of each concentration was added to the plates in triplicates and cells were exposed for 24 or 96 h. Afterward, the medium was replaced with 100 µL of MTT solution (5 mg/mL) in phosphate-buffered saline (PBS, Sigma-Aldrich), diluted 1:7 in RPMI 1640 medium (supplemented with 4 mM L-glutamine and 10% heat-inactivated FBS). Upon cell-viability-dependent conversion of the yellow, water-soluble tetrazolium salt into purple formazan products for 4 h, the crystals were dissolved in 150 µL DMSO. The absorbance of the resulting solutions, which is directly proportional to the number of viable cells, was measured at 550 nm (and at 690 nm as a reference) with a microplate reader (ELx808, BioTek, Winoosky, VT, USA) and Gen5TM 3.08 software (BioTek). Blank-corrected optical densities were subjected to graphical evaluation and interpolation of IC50 values. At least three biologically and technically independent experiments were performed.

[2] = test system: CH1/PA-1 ovarian teratocarcinoma cells; test: MTT assay (cytotoxicity); format: cell-based, human; conditions: CH1/PA-1, MTT
Experimental: as §1, §2

[3] = test system: SW480 colon carcinoma cells; test: MTT assay (cytotoxicity); format: cell-based, human
Experimental: as §1, §2

SW480 cells [4] = test: Cellular ruthenium accumulation (ICP-MS); format: cell-based, human; conditions: SW480, 2 h incubation, 37 °C
Experimental: SW480 cells were seeded at densities of 1.8 × 10^5 cells/well in 12-well plates (CytoOne, tissue culture treated) in 1 mL of supplemented MEM per well. (As CH1/PA-1 cells tend to detach during the required washing steps, cellular accumulation studies were performed only in SW480 cells). After 24 h, compounds dissolved in DMSO and diluted in MEM were added to the cells to final concentrations of 2 µM and 5 µM, and cells were incubated at 37 °C for 2 h. During incubation, the cell number was determined from three control wells of a plate seeded in parallel to the treatment plates. After the 2 h incubation, the medium was removed and all wells were washed with 3 × 1 mL PBS, and cells were lysed by adding 400 µL HNO3 per well for 1 h at room temperature. An amount of 300 µL of each lysate was added to 7.7 mL MilliQ water to get a total volume of 8 mL, and determination of the ruthenium content was carried out by ICP-MS. The measured amount of accumulated metal was normalized to the cell number and results were given in fg [Ru]/cell from at least three independent experiments. An Agilent 7800 ICP-MS instrument (Agilent Technologies, Tokyo, Japan) equipped with an Agilent SPS 4 autosampler (Agilent Technologies, Tokyo, Japan) was used to determine the ruthenium content. The ICP-MS parameters were tuned on a daily base to achieve high sensitivity. The ICP-MS was equipped with a MicroMist nebulizer with a sample uptake rate of ∼0.2 mL/min and standard nickel cones. The Agilent MassHunter software package (Workstation Software, Version C.01.04, 2018) was used for data evaluation. The instrumental parameters can be found in the supplementary information (Table S9).

SW480 cells [5] = test: Apoptosis assay (annexin V-FITC/PI, flow cytometry); conditions: SW480, 24 h; for early apoptotic cells / late apoptotic cells / necrotic cells / viable cells: mean ± SD; for Apoptosis / necrosis induction (in words): concentrations covering the IC50 range
Experimental: Cell death induction was quantitatively analyzed via flow cytometry using double staining with FITC-conjugated annexin V (eBioscience, San Diego, CA, USA) and propidium iodide (PI, 1.0 mg/mL, Sigma-Aldrich). SW480 cells were seeded into 24-well plates (7 × 10^4 cells/well) in 600 µL MEM per well and allowed to settle for 24 h. Afterward, cells were exposed to two or three different concentrations (0.1–100 µM) of the compounds (based on their cytotoxic activity) for 24 h. After treatment, the medium was collected, and cells were washed once with 37 °C warm PBS and harvested. Following trypsinization, the cell suspension was added to the pre-collected medium and cells were centrifuged (300 g, 3 min). The supernatant was removed, and the cell pellet was resuspended with 1.5 µL FITC-conjugated annexin V in 150 µL binding buffer (10 mM HEPES/NaOH pH 7.4, 140 mM NaCl and 2.5 mM CaCl2) and incubated at 37 °C for 15 min. An amount of 1 µL of propidium iodide (PI, Thermo Fisher) was added shortly before flow-cytometric analysis using a Guava easyCyte 8HT instrument (Merck Millipore, Burlington, MA, USA) with InCyte software. Results were quantified by using the FlowJo software (TreeStar). At least three independent experiments were conducted.

[6] = Homo sapiens, read-out: viable cells

| SMILES | IC50 ([1]; 24 h exposure) [µM] | IC50 ([1]; 96 h exposure) [µM] | IC50 ([2]; 24 h exposure) [µM] | IC50 ([2]; 96 h exposure) [µM] | IC50 ([3]; 24 h exposure) [µM] | IC50 ([3]; 96 h exposure) [µM] | Ru [102]/cell (cellular accumulation) (SW480 cells [4]; 2 µM) [fg] | Ru [102]/cell (cellular accumulation) (SW480 cells [4]; 5 µM) [fg] | early apoptotic cells (SW480 cells [5]; 0.1 µM) [%] | late apoptotic cells (SW480 cells [5]; 0.1 µM) [%] | necrotic cells (SW480 cells [5]; 0.1 µM) [%] | viable cells (SW480 cells [5]; 0.1 µM) [%] | early apoptotic cells (SW480 cells [5]; 1 µM) [%] | late apoptotic cells (SW480 cells [5]; 1 µM) [%] | necrotic cells (SW480 cells [5]; 1 µM) [%] | viable cells (SW480 cells [5]; 1 µM) [%] | early apoptotic cells (SW480 cells [5]; 10 µM) [%] | late apoptotic cells (SW480 cells [5]; 10 µM) [%] | necrotic cells (SW480 cells [5]; 10 µM) [%] | viable cells (SW480 cells [5]; 10 µM) [%] | further results |
| --- | --- | --- | --- | --- | --- | --- | --- | --- | --- | --- | --- | --- | --- | --- | --- | --- | --- | --- | --- | --- | --- |
| CC1=C([O-])C([O-])(n2cccn2)c2ccccc2C1=O.[Ru+2].c1ccc2c(c1)CCC2 (racemic) [Compound 4] | 119 ± 21 | 9.1 ± 1.5 | 146 ± 18 | 88 ± 10 | 3.5 ± 1.6 | 0.52 ± 0.09 | 44 ± 3 | 100 ± 15 | 1.1 ± 0.5 | 2.1 ± 0.4 | 1.7 ± 1.1 | 95 ± 2 | 1.1 ± 0.7 | 2.4 ± 1.2 | 0.93 ± 0.65 | 96 ± 2 | 1.0 ± 0.4 | 8.3 ± 4.9 | 3.4 ± 4.0 | 87 ± 8 |  |
| CC1=C([O-])C([O-])(n2cccn2)c2ccccc2C1=O.[Ru+2].c1ccccc1 (racemic) [Compound 2] | > 200 | 141 ± 38 | 170 ± 23 | 157 ± 8 | 31 ± 3 | 9.9 ± 2.5 | 4.5 ± 0.3 | 11 ± 2 |  |  |  |  | 1.1 ± 0.4 | 2.0 ± 0.2 | 1.4 ± 0.8 | 95 ± 1 | 1.0 ± 0.3 | 2.0 ± 0.3 | 1.5 ± 0.8 | 96 ± 1 |  |
| CC1=C([O-])C([O-])(n2cccn2)c2ccccc2C1=O.[Ru+2].c1ccc(-c2ccccc2)cc1 (racemic) [Compound 5] | 4.3 ± 1.6 | 1.2 ± 0.2 | 42 ± 4 | 30 ± 3 | 0.77 ± 0.24 | 0.072 ± 0.019 | 107 ± 14 | 336 ± 10 | 3.0 ± 2.2 | 2.9 ± 1.5 | 1.0 ± 0.5 | 93 ± 4 | 1.0 ± 0.5 | 3.3 ± 1.3 | 0.85 ± 0.48 | 95 ± 2 | 25 ± 7 | 40 ± 6 | 6.3 ± 2.2 | 29 ± 11 | Apoptosis / necrosis induction (in words) (SW480 cells [5]): induced apoptosis to a high extent |
| CC1=C(O)C(=O)c2ccccc2C1=O [L, 2-Hydroxy-3-methyl-1,4-naphthoquinone] |  |  |  |  |  |  |  |  |  |  |  |  |  |  |  |  | 1.0 ± 0.5 | 1.6 ± 0.2 | 0.61 ± 0.44 |  | IC50 ([1]; Homo sapiens, 24 h exposure): > 400 µM; IC50 ([2]; Homo sapiens, 24 h exposure): > 400 µM; IC50 ([3]; Homo sapiens, 24 h exposure): > 400 µM; viability at 10 µM (SW480 cells [5]; [6]): 97 ± 1%; viability at 100 µM (SW480 cells [5]; [6]): 96%; early apoptotic cells (SW480 cells [5]; 100 µM): 1.0 ± 0.2%; late apoptotic cells (SW480 cells [5]; 100 µM): 1.9 ± 0.2%; necrotic cells (SW480 cells [5]; 100 µM): 0.86 ± 0.33%; Apoptosis / necrosis induction (in words) (SW480 cells [5]): did not induce any of these processes |
| CC1=C([O-])C([O-])(n2cccn2)c2ccccc2C1=O.Cc1ccccc1.[Ru+2] (racemic) [Compound 3] | > 200 | 72 ± 12 | 121 ± 18 | 138 ± 10 | 11 ± 2 | 2.8 ± 0.7 | 15 ± 2 | 33 ± 10 |  |  |  |  | 1.0 ± 0.7 | 2.1 ± 0.3 | 1.0 ± 0.5 | 96 ± 1 | 0.7 ± 0.3 | 2.1 ± 0.7 | 0.72 ± 0.49 | 97 ± 1 |  |
| CC1=C([O-])C([O-])(n2cccn2)c2ccccc2C1=O.Cc1c(C)c(C)c(C)c(C)c1C.[Ru+2] (stereo not shown) [Compound 6] | 38 ± 21 | 3.4 ± 0.6 | 57 ± 16 | 35 ± 4 | 2.8 ± 1.6 | 0.27 ± 0.06 | 100 ± 15 | 206 ± 32 | 1.0 ± 0.7 | 4.7 ± 2.8 | 17 ± 27 | 77 ± 29 | 1.1 ± 07 | 2.0 ± 0.7 | 1.0 ± 1.3 | 96 ± 2 | 1.1 ± 0.3 | 3.7 ± 0.1 | 0.94 ± 0.52 | 94 ± 0 | Apoptosis / necrosis induction (in words) (SW480 cells [5]): neither apoptotic nor necrotic cells exceeded the percentages in untreated controls |
| CC1=C([O-])C([O-])(n2cccn2)c2ccccc2C1=O.Cc1ccc(C(C)C)cc1.[Ru+2] (racemic) [Compound 1] | 3.8 ± 2.6 |  | 59 ± 18 |  | 0.46 ± 0.14 |  | 97 ± 8 | 299 ± 54 | 3.7 ± 3.1 | 3.6 ± 2.6 | 0.77 ± 0.33 | 92 ± 6 | 1.3 ± 0.5 | 4.9 ± 2.8 | 1.2 ± 0.8 | 93 ± 4 | 16 ± 1 | 64 ± 6 | 6.7 ± 3.1 | 13 ± 3 | Apoptosis / necrosis induction (in words) (SW480 cells [5]): induced apoptosis to a high extent |
